Reference: patent US20230060350A1, “BACTERICIDAL COMPOSITION FOR CONTROLLING GUMMY STEM BLIGHT OF MELONS” (Institute of Plant Protection and Agro-products Safety, …, priority 2022, published 2023)

What was measured:
[1] = system: Stagonosporopsis cucurbitacearum; assay: Indoor toxicity test, hypha growth assay on drug-containing PDA plates; format: cell-based; conditions: hypha growth inhibition, 25° C.
Protocol: Embodiment 1 Indoor toxicity test of Pydiflumetofen and the Thifluzamide on Stagonosporopsis cucurbitacearum
Bactericidal properties of the Pydiflumetofen and the Thifluzamide were analyzed in detail. EC50 […] of two single components such as the Pydiflumetofen and the Thifluzamide (hereinafter referred to as agents) was tested first; a combination ratio of the two agents was set by a Wadley method according to the EC50 of the two single agents, and according to a Wadley synergistic coefficient SR value.
A test object was Stagonosporopsis cucurbitacearum of melons, but was not limited herein. […] Hypha growth assay was adopted during the test; drug containing media were prepared according to different treatments; hypha blocks having a diameter of 5 mm were prepared on the edges of the pre-culture colonies by using the sterilized puncher and respectively transferred onto medium plates with different drug content; a colony diameter was tested by a crossing method; the colony diameter (mm) was measured; and a growth inhibition ratio was calculated by the following formula: […]
Interaction of the mixture was evaluated according to the Wadley method; and a calculation formula was as follows: […]
In the formula, a and b were content ratios of various components in the mixture; and a mixing effect was analyzed based on the value SR.

[2] = system: gummy stem blight of Trichosanthes kirilowii maxim; assay: Field control experiment on gummy stem blight of Trichosanthes kirilowii maxim; format: in vivo
Excerpt: Embodiment 3: Field Control Experiment of Pydiflumetofen and the Thifluzamide on Gummy Stem Blight of Trichosanthes kirilowii maxim
Control tests of gummy stem blight of Trichosanthes kirilowii maxim were respectively conducted in 2020 and 2021. Test data in 2021 were collected as follows: the 20% Pydiflumetofen·Thifluzamide suspension, 20% Pydiflumetofen suspension, 30% Thifluzamide suspension and 25% Azoxystrobin suspension in embodiment 2 were respectively used in the experiment. The variety of the tested Trichosanthes kirilowii maxim was “Wanlou 9”; the test location was a Trichosanthes kirilowii maxim field in Gangji experimental production base in Anhui Academy of Agricultural Sciences; water consumption per mu was 30 kg; the Trichosanthes kirilowii maxim was subjected to agent control at an early stage of growing and flowering (May 20); and disease condition survey was conducted within 30 days (Table 2).

[3] = system: gummy stem blight of the watermelon; assay: Greenhouse control experiment on gummy stem blight of watermelon; format: in vivo
Excerpt: Embodiment 4: Field Control Experiment of Pydiflumetofen and the Thifluzamide on Gummy Stem Blight of Watermelon Control tests of gummy stem blight of watermelons were respectively conducted in 2020 and 2021. Test data in 2021 were collected as follows: the 18% Pydiflumetofen·Thifluzamide water dispersible granules, 20% Pydiflumetofen suspension, 30% Thifluzamide suspension and 25% Azoxystrobin suspension in embodiment 1 were respectively used in the experiment. The variety of the tested watermelon was “Zaojia 8424”; the test location was a watermelon greenhouse in Gangji experimental production base in Anhui Academy of Agricultural Sciences; water consumption per mu was 30 kg; the watermelons were subjected to agent control for the first time within 30 days after field planting of watermelon seedlings, and then subjected to agent control for the second time within 10 days after the first control; and disease condition survey was conducted within 30 days after the second agent control (Table 3).

SMILES	EC50 [1]	Control effect (in words) [2]	Control effect (in words) [3]
CON(C(=O)c1cn(C)nc1C(F)F)C(C)Cc1c(Cl)cc(Cl)cc1Cl (racemic) [Pydiflumetofen, 3-(difluoromethyl)-N-methoxy-1-methyl-N-[(RS)-1-methyl-2-(2,4,6-trichlorophenyl)ethyl]pyrazol-4-formamide]	0.0109 ppm	significant control effects	significant control effects
Cc1nc(C(F)(F)F)c(C(=O)Nc2c(Br)cc(OC(F)(F)F)cc2Br)s1 [Thifluzamide]	0.0451 ppm	significant control effects	significant control effects
